Assay results reported in patent US20070155795A1, “MUSCARINIC AGONISTS” (ACADIA Pharmaceuticals Inc., priority 2000, published 2007).

Columns and labels:
[1] = molecular target: T1, m1 muscarinic receptor subtype (Homo sapiens, UniProt P11229); test: R-SAT assay, muscarinic receptor subtype m1; format: cell-based; details: transfected NIH-3T3 cells, 5 days; for m1 % Eff: relative to maximum response to carbachol
T1 construct: expressed in transfected cells; host or cells: NIH-3T3 (ATCC CRL 1658)
T1 sequence (P11229 1-460): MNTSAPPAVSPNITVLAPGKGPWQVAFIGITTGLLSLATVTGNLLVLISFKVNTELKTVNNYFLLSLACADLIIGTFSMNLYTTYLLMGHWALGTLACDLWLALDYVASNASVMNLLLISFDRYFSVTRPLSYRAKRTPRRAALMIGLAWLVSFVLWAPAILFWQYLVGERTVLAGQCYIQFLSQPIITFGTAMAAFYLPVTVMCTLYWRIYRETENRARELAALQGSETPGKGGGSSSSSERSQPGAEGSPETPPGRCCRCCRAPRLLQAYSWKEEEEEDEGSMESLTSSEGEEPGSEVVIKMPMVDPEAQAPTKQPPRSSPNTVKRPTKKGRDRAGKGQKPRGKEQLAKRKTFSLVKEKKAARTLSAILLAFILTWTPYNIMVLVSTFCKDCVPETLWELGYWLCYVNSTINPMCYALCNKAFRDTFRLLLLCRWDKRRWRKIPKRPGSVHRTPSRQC
Protocol: (§1) Transfected cells were grown in the presence of between 1 nM and 40 μM of the test compound for 5 days. On day 5, the cells were lysed using 0.5% Nonidet-P and β-galactosidase expression was quantified using the chromogenic substrate o-nitrophenyl-β-D-galactoside (ONGP).
(§2) Data were normalized relative to the maximum response of the cells to the muscarinic agonist carbachol, and the following equation was fitted to the data: • response=minimum+(maximum−minimum)/(1+(EC50/[ligand])) • Where [ligand]=ligand concentration. • % Efficacy was defined as: • (maximum−minimum)/(maximum response of cells to carbachol). • pEC50=−log (EC50). • Where data gave a bell-shaped curve, “maximum” was defined as the highest observed response.

[2] = molecular target: T2, m2 muscarinic receptor subtype (Homo sapiens, UniProt P08172); test: R-SAT assay, muscarinic receptor subtype m2; format: cell-based; details: transfected NIH-3T3 cells, 5 days, relative to maximum response to carbachol
T2 construct: expressed in transfected cells; host or cells: NIH-3T3 (ATCC CRL 1658)
T2 sequence (P08172 1-466): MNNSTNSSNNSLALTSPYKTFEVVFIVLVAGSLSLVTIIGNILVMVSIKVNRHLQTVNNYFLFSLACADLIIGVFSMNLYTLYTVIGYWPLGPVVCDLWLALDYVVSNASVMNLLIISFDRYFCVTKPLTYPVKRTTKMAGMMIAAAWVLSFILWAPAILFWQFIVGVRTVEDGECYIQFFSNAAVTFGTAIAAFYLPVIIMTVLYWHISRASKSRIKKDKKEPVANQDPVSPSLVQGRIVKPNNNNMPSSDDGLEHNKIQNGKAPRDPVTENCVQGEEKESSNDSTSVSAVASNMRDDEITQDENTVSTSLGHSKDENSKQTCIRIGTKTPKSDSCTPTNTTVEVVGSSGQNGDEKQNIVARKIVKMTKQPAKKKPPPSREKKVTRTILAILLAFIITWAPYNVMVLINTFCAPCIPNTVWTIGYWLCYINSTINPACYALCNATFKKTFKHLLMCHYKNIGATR
Protocol: (§3) Screening Of Test Compounds In An Assay Using Muscarinic Receptor Subtypes m1, m2, m3, m4 and m5. The m1, m2, m3, m4 and m5 muscarinic receptor subtypes were cloned substantially as described by Bonner et al., Science […] and Bonner et al., Neuron 1:403 (1988). R-SAT assays were carried out substantially as described in U.S. Pat. Nos. 5,707,798, 5,912,132, and 5,955,281, and by Braüner-Osborne & Brann, Eur. J. Pharmacol. 295:93 (1995). NIH-3T3 cells (available from the American Type Culture Collection as ATCC CRL 1658) were transfected with plasmid DNA encoding the m1, m2, m3, m4 or m5 receptors and plasmid DNA encoding β-galactosidase. Transfected cells were grown in the presence of between 1 nM and 40 μM of the test compound for 5 days. On day 5, the cells were lysed using 0.5% Nonidet-P and β-galactosidase expression was quantified using the chromogenic substrate o-nitrophenyl-β-D-galactoside (ONGP).
as §2

[3] = molecular target: T3, m3 muscarinic receptor subtype (Homo sapiens, UniProt P20309); test: R-SAT assay, muscarinic receptor subtype m3; format: cell-based; details: transfected NIH-3T3 cells, 5 days, relative to maximum response to carbachol
T3 construct: expressed in transfected cells; host or cells: NIH-3T3 (ATCC CRL 1658)
Protocol: as §3, §2

[4] = molecular target: T4, m4 muscarinic receptor subtype (Homo sapiens, UniProt P08173); test: R-SAT assay, muscarinic receptor subtype m4; format: cell-based; details: transfected NIH-3T3 cells, 5 days; for m4 % Eff: relative to maximum response to carbachol
T4 construct: expressed in transfected cells; host or cells: NIH-3T3 (ATCC CRL 1658)
T4 sequence (P08173 1-479): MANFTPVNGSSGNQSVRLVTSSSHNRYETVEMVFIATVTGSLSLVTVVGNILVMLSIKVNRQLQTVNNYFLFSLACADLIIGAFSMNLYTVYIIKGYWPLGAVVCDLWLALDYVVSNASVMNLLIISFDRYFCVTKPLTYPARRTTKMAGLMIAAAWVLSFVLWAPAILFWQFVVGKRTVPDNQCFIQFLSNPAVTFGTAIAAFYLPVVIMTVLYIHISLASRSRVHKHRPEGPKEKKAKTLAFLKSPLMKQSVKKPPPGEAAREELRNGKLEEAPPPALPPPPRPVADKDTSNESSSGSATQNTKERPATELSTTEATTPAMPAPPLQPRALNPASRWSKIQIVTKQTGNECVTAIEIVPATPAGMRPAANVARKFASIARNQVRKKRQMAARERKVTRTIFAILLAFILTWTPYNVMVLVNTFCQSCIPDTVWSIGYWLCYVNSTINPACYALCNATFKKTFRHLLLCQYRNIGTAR
Protocol: as §1, §2

[5] = molecular target: T5, m5 muscarinic receptor subtype (Homo sapiens, UniProt P08912); test: R-SAT assay, muscarinic receptor subtype m5; format: cell-based; details: transfected NIH-3T3 cells, 5 days; for m5 % Eff: relative to maximum response to carbachol
T5 construct: expressed in transfected cells; host or cells: NIH-3T3 (ATCC CRL 1658)
T5 sequence (P08912 1-532): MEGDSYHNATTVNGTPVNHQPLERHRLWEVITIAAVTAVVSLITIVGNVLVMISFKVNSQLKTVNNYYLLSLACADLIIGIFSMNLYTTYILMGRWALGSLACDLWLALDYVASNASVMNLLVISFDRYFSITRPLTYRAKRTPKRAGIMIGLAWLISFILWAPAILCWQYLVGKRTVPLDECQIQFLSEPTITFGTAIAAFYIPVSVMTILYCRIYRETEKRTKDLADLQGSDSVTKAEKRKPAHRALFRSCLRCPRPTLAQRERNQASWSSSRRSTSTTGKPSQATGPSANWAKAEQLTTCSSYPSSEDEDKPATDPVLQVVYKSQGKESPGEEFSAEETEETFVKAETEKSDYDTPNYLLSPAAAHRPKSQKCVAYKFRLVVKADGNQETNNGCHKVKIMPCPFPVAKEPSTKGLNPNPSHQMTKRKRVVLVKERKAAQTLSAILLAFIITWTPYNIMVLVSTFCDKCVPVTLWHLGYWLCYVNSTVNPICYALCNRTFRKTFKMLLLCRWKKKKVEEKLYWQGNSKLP
Protocol: as §3, §2

Glaucomatous Monkeys = test: Intraocular pressure in glaucomatous monkeys (laser-induced unilateral ocular hypertension); format: in vivo, cynomolgus monkeys (Macacca fascicularis); details: conscious monkeys
Protocol: Effects of Compound 35AKU-21 on Intaocular Pressure in Primates. All studies were conducted in fully conscious female cynomolgus monkeys (Macacca fascicularis) weighing 3-4 kg. Unilateral ocular hypertension was produced by argon laser photocoagulation to the mid-trabecular meshwork (Sawyer & McGuigan, Invest. Ophthalmol. Vis. Sci. 29:81(1988)).
Animals were trained to allow measuring intraocular pressure (IOP) with a model 30 Classic pneumatonometer (Mentor O&O Co.). Throughout each study, monkeys sat in specially designed chairs (Primate Products, San Francisco) and fed fruits and juices as needed.
The drug was administered topically. The drug was formulated in an aqueous solution such as distilled water, saline or citrate buffer at a pH 5-7 and applied unilaterally as a 35 μL drop; the contralateral eye received an equal volume of saline (or vehicle). Two baseline measurements were made prior to administration of the drug, followed by periodic measurements up to 6 hours post drug administration.

[6] = in vivo; cited from earlier work

T3 sequence (P20309 whole entry): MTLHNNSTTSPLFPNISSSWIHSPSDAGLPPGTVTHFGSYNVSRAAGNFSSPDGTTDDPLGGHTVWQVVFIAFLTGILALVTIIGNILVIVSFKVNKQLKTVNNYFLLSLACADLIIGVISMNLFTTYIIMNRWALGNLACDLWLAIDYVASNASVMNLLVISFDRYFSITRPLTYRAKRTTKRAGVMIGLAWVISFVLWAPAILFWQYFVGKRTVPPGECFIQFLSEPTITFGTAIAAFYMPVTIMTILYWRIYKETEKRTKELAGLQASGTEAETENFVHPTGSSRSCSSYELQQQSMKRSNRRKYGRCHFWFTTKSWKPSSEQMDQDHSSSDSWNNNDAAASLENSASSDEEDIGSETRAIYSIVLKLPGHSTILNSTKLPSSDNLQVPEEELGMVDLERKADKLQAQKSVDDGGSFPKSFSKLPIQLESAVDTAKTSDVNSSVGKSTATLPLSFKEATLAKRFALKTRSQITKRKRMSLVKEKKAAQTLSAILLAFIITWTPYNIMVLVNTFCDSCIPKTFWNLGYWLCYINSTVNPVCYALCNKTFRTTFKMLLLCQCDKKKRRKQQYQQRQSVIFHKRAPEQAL

Structure (SMILES)	m1 pEC50 [1]	m1 % Eff [1]	m4 pEC50 [4]	m4 % Eff [4]	EC50 ([1]; read-out: m1 pEC50 (converted))	EC50 ([4]; read-out: m4 pEC50 (converted))	EC50 ([5]; read-out: m5 pEC50 (converted))	m2 % Eff [2]	m3 % Eff [3]	m5 % Eff [5]	% IOP Change (Glaucomatous Monkeys; 1 HR after topical 35 μL drop)	% IOP Change (Glaucomatous Monkeys; 2 HR after topical 35 μL drop)	% IOP Change (Glaucomatous Monkeys; 4 HR after topical 35 μL drop)	% IOP Change (Glaucomatous Monkeys; 6 HR after topical 35 μL drop)	patients with elevated liver transaminases (hepatotoxicity) [6]
CCCCC1CCN(CCCc2nc3c(C)cccc3[nH]2)CC1 [Example 32, 4-Methyl-2-(3-(4-n-butylpiperidine)-1-yl-propyl)-1H-benzoimidazole]	6.4	52%		no response (No response: Efficacy <25% maximum response of carbachol. This level of activity is not considered significantly different to no response.)				no response (No response: Efficacy <25% maximum response of carbachol. This level of activity is not considered significantly different to no response.)	no response (No response: Efficacy <25% maximum response of carbachol. This level of activity is not considered significantly different to no response.)	no response (No response: Efficacy <25% maximum response of carbachol. This level of activity is not considered significantly different to no response.)					
CCCCC1CCN(CCCn2nnc3ccccc32)CC1 [Example 61, 1-[3-(4-Butylpiperidin-1-yl)-propyl]-1H-benzotriazole]	6.3	59%	6.0	39%				no response (No response: Efficacy <25% maximum response of carbachol. This level of activity is not considered significantly different to no response.)	no response (No response: Efficacy <25% maximum response of carbachol. This level of activity is not considered significantly different to no response.)	no response (No response: Efficacy <25% maximum response of carbachol. This level of activity is not considered significantly different to no response.)					
CCCCC1CCN(CCCc2n[nH]c3ccccc23)CC1.Cl [Example 89, 3-[3-(4-Butyl-piperidine-1-yl)-propyl]1-H-indazole, HCl]	7.3	85%	6.8	53%				no response (No response: Efficacy <25% maximum response of carbachol. This level of activity is not considered significantly different to no response.)	no response (No response: Efficacy <25% maximum response of carbachol. This level of activity is not considered significantly different to no response.)	no response (No response: Efficacy <25% maximum response of carbachol. This level of activity is not considered significantly different to no response.)					
Nc1c2c(nc3ccccc13)CCCC2 [tacrine]															about 30%

Second part, led by results:

m1 pEC50 [1]	m1 % Eff [1]	m4 pEC50 [4]	m4 % Eff [4]	EC50 ([1]; read-out: m1 pEC50 (converted))	EC50 ([4]; read-out: m4 pEC50 (converted))	EC50 ([5]; read-out: m5 pEC50 (converted))	Structure (SMILES)	m2 % Eff [2]	m3 % Eff [3]	m5 % Eff [5]	% IOP Change (Glaucomatous Monkeys; 1 HR after topical 35 μL drop)	% IOP Change (Glaucomatous Monkeys; 2 HR after topical 35 μL drop)	% IOP Change (Glaucomatous Monkeys; 4 HR after topical 35 μL drop)	% IOP Change (Glaucomatous Monkeys; 6 HR after topical 35 μL drop)	patients with elevated liver transaminases (hepatotoxicity) [6]
7.3	86%	6.5	70%				CCCCC1CCN(CCCn2ncc3ccccc32)CC1 [Example 19, 1-(3-(4-n-Butylpiperidine)-1-yl-propyl)-4H-indazole]	no response (No response: Efficacy <25% maximum response of carbachol. This level of activity is not considered significantly different to no response.)	no response (No response: Efficacy <25% maximum response of carbachol. This level of activity is not considered significantly different to no response.)	no response (No response: Efficacy <25% maximum response of carbachol. This level of activity is not considered significantly different to no response.)	−9.3%	−21.3%	−25.9%	−29.2%	
	81%		69%	126 nM	631 nM	> 3160 nM	CCCC1CCN(CCCn2ncc3ccccc32)CC1 [Example 41, 1-(3-(4-Propylpiperidine)-1-yl-propyl)-1H-indazole]	no response (No response: Efficacy <25% maximum response of carbachol. This level of activity is not considered significantly different to no response.)	no response (No response: Efficacy <25% maximum response of carbachol. This level of activity is not considered significantly different to no response.)	31%					
